Measured values: patent US20190352276A1, “INHIBITORS OF BRUTON'S TYROSINE KINASE” (Joint Stock Company "Biocad", priority 2016, published 2019)

How the values were obtained:
[1] = test system: HepG2 cells (hepatocellular carcinoma); experiment: General cytotoxicity on HepG2 cells (CC50; therapeutic index CC50 HepG2/IC50 Mino); assay type: cell-based; settings: Table 10; therapeutic index
Procedure: (§1) The CC50 values were determined in the test for General cytotoxicity on HepG2 cells (hepatocellular carcinoma, ATCC® HB-8065™). 2*10^4 cells (in 50 μl) per well were seeded in 96-well plates (Corning, #3599) in DMEM medium (PanEco, #S420p), after 24 h of incubation 150 μl of candidate compounds were added to each well in the range of final concentrations from 200 μM to 4 μM and the plate was incubated in a total volume of 200 μl for 72 hours. Viability of the cells was assessed using Alamar Blue dye (Invitrogen, #DAL 1100). CC50 was determined similarly (table 10).
(§2) The relationship between toxic (CC50) and a therapeutic (IC50) effects of the dose is the therapeutic index, which can be expressed as the ratio between CC50 (HepG2) (general cytotoxicity of the candidate) and IC50 (Mino) (antiproliferative activity on the target cells): […]

[2] = as above; assay type: cell-based; settings: human, HepG2 cells (hepatocellular carcinoma); Table 10; 72 hours, Alamar Blue; average of several tests
Procedure: as §1, §2

[3] = Chemical stability in artificial gastric fluid (SGF without enzymes); settings: 10 μM in SGF without enzymes, pH=1.4, 37° C.
[4] = test system: Z-138 (mantle cell lymphoma); experiment: Antiproliferative activity, Z-138 cells (Alamar Blue); assay type: cell-based; settings: Homo sapiens, Table 10, 72 h, average of several tests
Procedure: (§3) Antiproliferative activity of BTK inhibitors was measured in cell-based bioassay on B-cells cultures: Mino (mantle cell lymphoma, ATCC® CRL-3000™), Z-138 (mantle cell lymphoma, ATCC® CRL-3001™) and DOHH2 (follicular lymphoma, Creative Bioarray CSC-C0219) using cell viability reagent Alamar Blue (Invitrogen, #DAL 1100). Cells were cultured in 10% FB S-supplemented (HyClone, #SH3008803/Gibco, #16140-071) RPMI-1640 (PanEco, #S330p) for at least 1 passage after thawing, washed with PBS and passaged in 96-well culture plates (Corning, #3599) with growth medium with 10% FBS (HyClone, #SH3008803/Gibco, #16140-071) and antibiotic (50 μg/ml of gentamicin (Biolot, #1.3.16))≈3*10^4 cells in 50 μl of medium per well.
(§4) The compounds were dissolved in DMSO and diluted with the assay medium to final concentrations ranging from […]. 150 μl of each diluted compound were then added to each well (final concentration of DMSO was less than 1%) and incubated at 37° C. in an incubator under 5% of CO2 for 72 h. After incubation, 20 μl of Alamar Blue reagent (Invitrogen, #DAL1100) were added to each well. The plates were shaked on an orbital shaker (Biosan, Latvia) and then incubated for 14-16 hours at 37° C. in the incubator.
(§5) The number of living cells were estimated, measuring the fluorescence signal at the excitation wavelength (REx) of 540 nm and the emission wavelength (λEm) of 590 nm on a microplate reader (Tecan Infinite M200Pro, Switzerland).
(§6) For each compound, IC50 was calculated using Magellan 7.2 software (Tecan, Switzerland) approximating experimental points by four-parameter logistic model with the optimization by Levenberg-Marquardt.

[5] = test system: Mino (mantle cell lymphoma); experiment: Antiproliferative activity, Mino cells (Alamar Blue); assay type: cell-based; settings: Homo sapiens, Table 10, 72 h, average of several tests
Procedure: as §3, §4, §5, §6

Row | Compound | CC50 (HepG2)/IC50 (Mino) [1] | CC50 at 72 h [2] [µM] | Amount of substance in the sample in % (chemical stability) [3] [%] | IC50 [4] [µM] | IC50 [5] [µM]
1 | C=CC(=O)N1CCC[C@@H](n2nc(-c3ccc(-n4ccc(=O)cc4)nc3)c3cncc(Cl)c32)C1 [BCD-BTK-56, (R)-5′-(1-(1-acryloylpiperidin-3-yl)-7-chloro-1H-pyrazolo[4,3-c]pyridin-3-yl)-4H-[1,2′-bipyridin]-4-one] | >1.54 | > 50 | 99.0 | 30.5 | 32.5
2 | C=CC(=O)N1CCC[C@@H](n2nc(-c3cnc(-n4ccc(=O)cc4)nc3)c3c(N)ncc(Cl)c32)C1 [BCD-BTK-74, (R)-1-(5-(1-(1-acryloylpiperidin-3-yl)-4-amino-7-chloro-1H-pyrazolo[4,3-c]pyridin-3-yl)pyrimidin-2-yl)pyridin-4(1H)-one] | 4.57 | 100 | 98.7 | 17.6 | 21.9
3 | C=CC(=O)N1CCC[C@@H](n2nc(-c3ccc(-n4ccc(=O)cc4)nc3)c3c(N)ncc(Cl)c32)C1 [BCD-BTK-76, (R)-5′-(1-(1-acryloylpiperidin-3-yl)-4-amino-7-chloro-1H-pyrazolo[4,3-c]pyridin-3-yl)-4H-[1,2′-bipyridin]-4-one] | >6.27 | > 100 | 99.7 | 19.6 | 16
4 | C=CC(=O)Nc1cc2c(-c3ccc(-n4ccc(=O)cc4)cc3)nn([C@@H]3CCCN(C(=O)C=C)C3)c2nc1C [BCD-BTK-117, (R)-N-(1-(1-acryloylpiperidin-3-yl)-6-methyl-3-(4-(4-oxopyridin-1(4H)-yl)phenyl)-1H-pyrazolo[3,4-b]pyridin5-yl)acrylamide] | >3.76 | > 50 | 99.7 | 23.4 | 13.3
5 | C=CC(=O)Oc1cc(C#N)c2c(c1)c(-c1ccc(-n3ccc(=O)cc3)cc1)nn2[C@@H]1CCCN(C(=O)C=C)C1 [BCD-BTK-118, (R)-1-(1-acryloylpiperidin-3-yl)-7-cyano-3-(4-(4-oxopyridin-1(4H)-yl)phenyl)-1H-indazol-5-yl acrylate] | 4.83 | 66.2 | 95.4 | 7.84 | 13.7
6 | C=CC(=O)N1CCC[C@@H](n2nc(-c3ccc(-n4ccc(=O)cc4)cc3)c3cc(N)c(C)nc32)C1 [BCD-BTK-119, (R)-1-(4-(1-(1-acryloylpiperidin-3-yl)-5-amino-6-methyl-1H-pyrazolo[3,4-b]pyridin-3-yl)phenyl) pyridin-4(1H)-one] | >8.16 | > 100 | 100.0 | 25.5 | 12.3
7 | C=CC(=O)N1CCC[C@@H](n2nc(-c3ccc(-n4ccc(=O)cc4)cc3)c3cc(O)cc(C#N)c32)C1 [BCD-BTK-122, (R)-1-(1-acryloylpiperidin-3-yl)-5-hydroxy-3-(4-(4-oxopyridin-1(4H)-yl)phenyl)-1H-indazol-7-carbonitrile] | >2.81 | > 100 | 97.5 | 36.5 | 35.6
8 | C=CC(=O)Oc1cnc2c(c(-c3ccc(-n4ccc(=O)cc4)cc3)nn2[C@@H]2CCCN(C(=O)C=C)C2)c1Cl [BCD-BTK-136, (R)-1-(1-acryloylpiperidin-3-yl)-4-chloro-3-(4-(4-oxopyridin-1(4H)phenyl)-1H-pyrazolo[3,4-b]pyridin-5-yl acrylate] | >7.97 | > 100 | 89.9 | > 50 | 12.5
9 | C=CC(=O)N1CCC[C@@H](n2nc(-c3ccc(Oc4ccncc4)cc3)c3cc(O)cc(C#N)c32)C1 [BCD-BTK-137] | 5.70 | 65.9 | 94.3 | 25.6 | 11.6
10 | C=CC(=O)N1CCC[C@@H](n2nc(-c3ccc(Oc4ccncc4)cc3)c3cncc(C(N)=O)c32)C1 [BCD-BTK-140, (R)-1-(1-acryloylpiperidin-3-yl)-3-(4-(pyridin-4-yloxy)phenyl)-1H-pyrazolo[4,3-c]pyridin-7-carboxamide] | >5.93 | > 100 | 99.4 | > 50 | 16.9
11 | C=CC(=O)N1CCC[C@@H](n2nc(-c3ccc(C(=O)Nc4cc(C(F)(F)CC)ccn4)cc3)c3cncc(C#N)c32)C1 [BCD-BTK-219, 4-{7-cyano-1-[1-(prop-2-enoyl)piperidin-3-yl]-1H-pyrazolo[4,3-c]pyridin-3-yl}-N-[4-(1,1-difluoropropyl)pyridin-2-yl] benzamide] | >9.95 | > 100 | 96.7 | ~50 | 10.1
12 | C=CC(=O)N1CCC[C@@H](n2nc(-c3ccc(C(=O)Nc4cc(C(C)(F)F)ccn4)cc3)c3cncc(C#N)c32)C1 [BCD-BTK-224, 4-{7-cyano-1-[(3R)-1-(prop-2-enoyl)piperidin-3-yl]-1H-pyrazolo[4,3-c]pyridin-3-yl}-N-[4-(1,1-difluoroethyl)pyridin-2-yl]benzamide] | 6.63 | 73.1 | 100 | > 50 | 11
13 | C=CC(=O)N1CCC[C@@H](n2nc(-c3ccc(Oc4ccncc4C(N)=O)cc3)c3cncc(F)c32)C1 [BCD-BTK-246, (R)-4-(4-(1-(1-acryloylpiperidin-3-yl)-7-fluoro-1H-pyrazolo[4,3-c]pyridin-3-yl)phenoxy)nicotinamide] | >3.09 | > 100 | 100 | 23.7 | 32.4
14 | C=CC(=O)N1CC(Cn2nc(-c3ccc(Oc4ccncc4)cc3)c3cncc(Cl)c32)C1 [BCD-BTK-264, 1-(3-((7-chloro-3-(4-(pyridin-4-yloxy)phenyl)-1H-pyrazolo[4,3-c]pyridin-1-yl)methyl)azetidin-1-yl)prop-2-en-1-one] | 2.13 | 10.5 | 97.8 | 14.3 | 4.92
15 | CC#CC(=O)N1CC[C@H](n2nc(-c3ccc(Oc4ccncc4)cc3)c3cncc(Cl)c32)C1 [BCD-BTK-270, (S)-1-(3-(7-chloro-3-(4-(pyridin-4-yloxy)phenyl)-1H-pyrazolo[4,3-c]pyridin-1-yl)pyrrolidin-1-yl)but-2-yn-1-one] | 3.45 | 23.4 | 99.1 | 14.3 | 6.79
16 | C=CC(=O)N1CC[C@@H](Cn2nc(-c3ccc(C(=O)Nc4ccccn4)cc3)c3cncc(Cl)c32)C1 [BCD-BTK-284, (R)-4-(1-((1-acryloylpyrrolidin-3-yl)methyl)-7-chloro-1H-pyrazolo[4,3-c]pyridin-3-yl)-N-(pyridin-2-yl)benzamide] | >3.59 | > 100 | 100 | 115 | 27.9
17 | C=CC(=O)N1CC[C@H](Cn2nc(-c3ccc(C(=O)Nc4ccccn4)cc3)c3cncc(Cl)c32)C1 [BCD-BTK-285, (S)-4-(1-((1-acryloylpyrrolidin-3-yl)methyl)-7-chloro-1H-pyrazolo[4,3-c]pyridin-3-yl)-N-(pyridin-2-yl)benzamide] | >9.91 | > 100 | 100 | > 34.6 | 10.1
